Experimental data taken from article PMC2580763, “Product inhibition of secreted phospholipase A2 may explain lysophosphatidylcholines' unexpected therapeutic properties” (Journal of Inflammation (London, England), 2008).

How the values were obtained:
group IA sPLA2 = assay: purified group IA sPLA2 enzyme activity in vitro with added lysoPC (10-pyrene substrate); type: biochemical, Naja mossambica; details: for type of inhibition of group IA sPLA2: lower range of substrate concentrations, added lysoPCs; for Km / Vmax: 15 nM group IA sPLA2
Method: (§1) Blood was obtained from the trunk of 32 female Sprague Dawley rats (200–250 g) after decapitation. Blood samples were treated with citrate-phosphate-dextrose anticoagulant (1:10, Sigma), and plasma prepared by centrifugation after which samples were frozen at -80° until used. For 16 of these animals, plasma samples were pooled from 4–6 rats for ex vivo enzyme assays. The other 16 rats received lysoPC treatments (see below). The Institutional Animal Care and Use Committee of Drexel University College of Medicine approved all specific procedures of this study. Purified group IA secreted phospholipase A2 from the venom of the Mozambique spitting cobra (Naja mossambica) was obtained from Sigma (St. Louis, MO).
(§2) Enzyme assays were conducted as in previous studies using a Victor 3 fluorescent reader (Perkin Elmer, Waltham, MA). The substrate was 1-palmitoyl-2-pyrenedecanoyl phosphatidylcholine ("10-pyrene"), Caymen Chemical, Ann Arbor MI) a substrate for all calcium dependent PLA2s with the exception of cPLA2 and PAF-AH (LP-PLA2). Substrate solutions were prepared in reaction buffer consisting of 50 mM tris (pH = 7.4), 0.1 M NaCl, 2 mM CaCl2, 0.25% fatty acid-free albumin. The substrate forms phospholipids vesicles in this solution [37], and upon hydrolysis, releases fluorescent 10-pyrenyldecanoic acid (PDA). Plasma samples were 10% final and mixed with lysoPCs by gentle shaking for 100 sec, or they were derived from lysoPC-injected rats. All enzyme reactions were initiated with the addition of the substrate solution to the sPLA2 containing samples. Kinetic parameters including the properties of lysoPC inhibitors were determined by recording the initial maximum velocities (Vo) of enzyme reactions, obtained within 2 minutes of initiation. A detailed presentation of the calculations used in our kinetic analysis has been presented. Relative fluorescent units (RFU) were converted to product concentration using a standard curve made with pyrenyldecanoic acid (Invitrogen, Eugene, OR). Individual reactions were carried out in duplicate or triplicate and kinetic curves were produced using at least 6 substrate concentrations, with lysoPC or its vehicle (PBS with 8% ethanol). Representative Lineweaver-Burk and Michaelis-Menten plots as well as nonlinear regression analyses are presented in Results. Experiments were repeated at least 4 times with similar results. […] These calculations, and Km, Vmax and R^2 were made with statistical (INSTAT) and regression software (Prism), both from Graphpad (San Diego, CA).

plasma sPLA2 [1] = assay: sPLA2 enzyme activity in rat plasma ex vivo with added lysoPC (10-pyrene substrate); type: biochemical; details: for type of inhibition of plasma sPLA2 enzyme activity: kinetic studies, rat plasma ex vivo; for Ki / Km / Vmax: lysoPC 20 μM; for Ki: all reactions with substrates above 15 μM, read-out: Ki ± s.e.m.; for Km / Vmax: plasma 10% final
Method: as §1, §2

plasma sPLA2 [2] = assay: plasma sPLA2 activity of rats after subcutaneous lysoPC injection; type: in vivo; details: rat, subcutaneous 25 mg/kg, 2 hrs after injection; PDA generated in 1 hr
Method: Enzyme assays were conducted as in previous studies using a Victor 3 fluorescent reader (Perkin Elmer, Waltham, MA). The substrate was 1-palmitoyl-2-pyrenedecanoyl phosphatidylcholine ("10-pyrene"), Caymen Chemical, Ann Arbor MI) a substrate for all calcium dependent PLA2s with the exception of cPLA2 and PAF-AH (LP-PLA2). Substrate solutions were prepared in reaction buffer consisting of 50 mM tris (pH = 7.4), 0.1 M NaCl, 2 mM CaCl2, 0.25% fatty acid-free albumin. The substrate forms phospholipids vesicles in this solution [37], and upon hydrolysis, releases fluorescent 10-pyrenyldecanoic acid (PDA). Plasma samples were 10% final and mixed with lysoPCs by gentle shaking for 100 sec, or they were derived from lysoPC-injected rats. […] Kinetic parameters including the properties of lysoPC inhibitors were determined by recording the initial maximum velocities (Vo) of enzyme reactions, obtained within 2 minutes of initiation. […]
Rats were injected subcutaneously under the loose skin at the shoulders with synthetic stearoyl (n = 4) or palmitoyl (n = 4) lysoPCs (25 mg/kg) two hrs before sacrifice and compared to vehicle-injected rats (n = 8). The relative concentrations of active sPLA2 enzymes were measured in plasma samples of these animals by determining the total hydrolysis of substrate in 1 hr.

SMILES	type of inhibition of group IA sPLA2 (group IA sPLA2)	type of inhibition of plasma sPLA2 enzyme activity (plasma sPLA2 [1])	Ki (plasma sPLA2 [1]) [µM]	Km (plasma sPLA2 [1]) [µM]	Vmax (plasma sPLA2 [1]) [nM/min/ml]	range of plasma sPLA2 activities compared with vehicle-injected control rats (plasma sPLA2 [2])	inhibition of group IA sPLA2 (group IA sPLA2; 40 μM lysoPC, 30 μM substrate)	Km (group IA sPLA2; lysoPC 40 μM) [µM]	Vmax (group IA sPLA2; lysoPC 40 μM) [μM/min/ml]	percent inhibition (percent reduction in Vo) (group IA sPLA2; 40 μM lysoPC preincubated with 5% albumin (> 600 μM), n = 4) [%]	percent inhibition (percent reduction in Vo) (group IA sPLA2; 40 μM lysoPC, standard buffer (0.25% albumin), n = 8) [%]	Km (group IA sPLA2; lysoPC 10 μM) [µM]	Vmax (group IA sPLA2; lysoPC 10 μM) [μM/min/ml]	Km (group IA sPLA2; lysoPC 20 μM) [µM]	Vmax (group IA sPLA2; lysoPC 20 μM) [μM/min/ml]
CCCCCCCCCCCCCCCC(=O)OC[C@@H](O)COP(=O)([O-])OCC[N+](C)(C)C [Palmitoyl, palmitoyl lysoPC]	Uncompetitive inhibition	uncompetitive inhibitors	25.9 ± 4	16.1	684.7	significantly lower and narrower	–	–	–	–	–	–	–	–	–
CCCCCCCCCC(=O)OC[C@@H](O)COP(=O)([O-])OCC[N+](C)(C)C [Decanoyl, Decanoyl lysoPC, reference compound]	–	–	–	–	–	–	failed to show inhibition	25	342.4	–	–	–	–	–	–
CCCCCCCCCCCCCCCCCC(=O)OC[C@@H](O)COP(=O)([O-])OCC[N+](C)(C)C [Stearoyl, stearoyl lysoPC]	Uncompetitive inhibition	uncompetitive inhibitors	34.2 ± 17.4	11.3	669.2	significantly lower and narrower	–	7.31	92.15	29.3 ± 1.6	63 ± 6	9.37	221.9	5.92	156.2
